Test systems include UACC-257 melanoma; BT-549 breast; MOLT-4 leukemia; IGROV1 ovarian; ACHN renal; SF-539 CNS; OVCAR-3 ovarian; RXF 393 renal; HCT-116 colon; NCI-H522 lung.
Common to all, as to test: NCI tumour cell line growth inhibition, 48 h

Molecules are shown by their SMILES.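 Grown in 96-well plates, cells were treated for 48 hours with each compound at five concentrations. Insufficient inhibition: endpoint recorded as highest concentration tested. TGI marks complete inhibition of growth.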 A value given as a limit tells only on which side of the number the result lay.

As to `O=C1CC(n2cccc2)c2c(Br)sc(Br)c21` (stereo not given), the TGI with UACC-257 melanoma stood at 30.9 µM; with BT-549 breast, 34.3 µM; in the test on MOLT-4 leukemia it was 33.6 µM; with IGROV1 ovarian it was 32.7 µM; with ACHN renal it was 31.8 µM; in the test on SF-539 CNS it was 35 µM. Moreover, the TGI stood at 33.2 µM in the test on OVCAR-3 ovarian, 43.4 µM in the test with RXF 393 renal, 28.7 µM with HCT-116 colon and 3.27 µM with NCI-H522 lung.

On to `CCOC(=O)C1(C(F)(F)F)N=C(CC)OC(N2CCOCC2)=N1` (stereo not given), for which the TGI in the test with UACC-257 melanoma, with BT-549 breast, in the test on MOLT-4 leukemia, in the test on IGROV1 ovarian, with ACHN renal and in the test with SF-539 CNS was more than 100 µM in each case. Moreover, the TGI in the test with OVCAR-3 ovarian, with RXF 393 renal, in the test on HCT-116 colon and in the test with NCI-H522 lung was more than 100 µM in each case.

On to `CCCNc1ncnc2[nH]ncc12`, for which the TGI in the test with UACC-257 melanoma, in the test on BT-549 breast, in the test with MOLT-4 leukemia, in the test on IGROV1 ovarian, in the test with ACHN renal and with SF-539 CNS was more than 100 µM each time. Moreover, the TGI with OVCAR-3 ovarian, with RXF 393 renal, with HCT-116 colon and in the test with NCI-H522 lung was more than 100 µM throughout.

Regarding `CCOC(=O)C1CCCCN1CCc1c[nH]c2ccccc12` (stereo not given), the TGI with UACC-257 melanoma, in the test with BT-549 breast, in the test on MOLT-4 leukemia, in the test on IGROV1 ovarian, in the test with ACHN renal and with SF-539 CNS was more than 100 µM in each case. For the same compound, the TGI with OVCAR-3 ovarian, in the test with RXF 393 renal, in the test with HCT-116 colon and in the test with NCI-H522 lung was more than 100 µM throughout.

For the compound `Cc1ccc(/C(O)=C/c2nc3ccc([N+](=O)[O-])cc3nc2/C=C(\O)c2ccc(C)cc2)cc1`, the TGI in the test with UACC-257 melanoma, in the test with BT-549 breast, with MOLT-4 leukemia, in the test on IGROV1 ovarian, in the test with ACHN renal and in the test with SF-539 CNS was more than 100 µM each time. For the same compound, the TGI in the test on OVCAR-3 ovarian was more than 100 µM; in the test with RXF 393 renal, more than 77.5 µM; in the test on HCT-116 colon it was more than 100 µM; in the test with NCI-H522 lung, more than 100 µM.

As to `NS(=O)(=O)c1ccc(NNc2c3ccccc3nc3c(C(=O)Nc4ccc(S(=O)(=O)Nc5ncccn5)cc4)cccc23)cc1`, the TGI in the test on UACC-257 melanoma, in the test with BT-549 breast, with MOLT-4 leukemia, with IGROV1 ovarian, in the test on ACHN renal and in the test with SF-539 CNS was more than 25 µM throughout. In addition, the TGI with OVCAR-3 ovarian, in the test on RXF 393 renal, with HCT-116 colon and with NCI-H522 lung was more than 25 µM in each case.

With `C(/Cc1ccc2c(c1)OCO2)=N\NC1=NCCCN1`, the TGI in the test with UACC-257 melanoma was more than 100 µM; with BT-549 breast, more than 100 µM; in the test with MOLT-4 leukemia, 55.2 µM; in the test with IGROV1 ovarian, more than 100 µM; in the test with ACHN renal, more than 100 µM; in the test on SF-539 CNS, more than 100 µM. Besides, the TGI in the test with OVCAR-3 ovarian, with RXF 393 renal, with HCT-116 colon and with NCI-H522 lung was more than 100 µM in each case.

Turning to `COc1ccc(-c2cc(C(O)C3CCCCN3)c3ccccc3n2)cc1` (stereo not given), the TGI came out at 4.48 µM with UACC-257 melanoma; 32.2 µM in the test with BT-549 breast; 13.6 µM in the test with MOLT-4 leukemia; 22.4 µM in the test on IGROV1 ovarian; 24.4 µM in the test on ACHN renal; 23.5 µM in the test with SF-539 CNS. Further, the TGI with OVCAR-3 ovarian came out at 27.8 µM; with RXF 393 renal it was 11.3 µM; in the test with HCT-116 colon, 21.5 µM; with NCI-H522 lung, 22.4 µM.

As to `CN(C)C(=S)Oc1ccc2ccc(=O)oc2c1`, the TGI in the test on UACC-257 melanoma, in the test with BT-549 breast, in the test on MOLT-4 leukemia, with IGROV1 ovarian, in the test on ACHN renal and in the test with SF-539 CNS was more than 100 µM throughout. Also, the TGI in the test with OVCAR-3 ovarian, with RXF 393 renal, in the test on HCT-116 colon and in the test on NCI-H522 lung was more than 100 µM each time.

In the case of `COC(=O)c1c(C)nc(C)c(NO)c1-c1ccccc1C(F)(F)F`, the TGI is 42.8 µM with UACC-257 melanoma; 30.8 µM in the test with BT-549 breast; more than 100 µM with MOLT-4 leukemia; 35.6 µM with IGROV1 ovarian; 71.6 µM with ACHN renal; 38.6 µM in the test on SF-539 CNS. For the same compound, the TGI in the test with OVCAR-3 ovarian was 30.3 µM; in the test with RXF 393 renal, 32 µM; in the test with HCT-116 colon, 29.9 µM; with NCI-H522 lung, 33.1 µM.

For `CCOC(=O)c1cnccc1CC1(C#N)c2ccccc2C=CN1C(=O)c1ccccc1` (stereo not given), the TGI is more than 100 µM in the test with UACC-257 melanoma; more than 100 µM with BT-549 breast; 50.8 µM with MOLT-4 leukemia; 39.9 µM with IGROV1 ovarian; more than 100 µM with ACHN renal; 75.6 µM with SF-539 CNS. The TGI in the test on OVCAR-3 ovarian is more than 100 µM; in the test on RXF 393 renal it was more than 100 µM; with HCT-116 colon, more than 100 µM; in the test with NCI-H522 lung it was 54.8 µM.

Turning to `Cc1ccc(-c2n[nH]c(=O)n2/N=C\c2ccccc2)cc1`, the TGI was more than 100 µM in the test on UACC-257 melanoma; more than 73.8 µM in the test with BT-549 breast; more than 100 µM in the test on MOLT-4 leukemia; more than 100 µM with IGROV1 ovarian; more than 100 µM in the test with ACHN renal; more than 100 µM with SF-539 CNS. In addition, the TGI with OVCAR-3 ovarian is more than 100 µM; with RXF 393 renal, more than 81.5 µM; in the test on HCT-116 colon, more than 100 µM; in the test with NCI-H522 lung it was more than 100 µM.

In the case of `COc1c(C)c(C/C=C(\C)CC/C=C(\C)CCC=C(C)C)c(OC)c(OC)c1OC`, the TGI in the test with UACC-257 melanoma, with BT-549 breast, in the test on MOLT-4 leukemia, in the test with IGROV1 ovarian, in the test on ACHN renal and in the test on SF-539 CNS was more than 100 µM each time. Besides, the TGI in the test with OVCAR-3 ovarian, with RXF 393 renal, with HCT-116 colon and in the test with NCI-H522 lung was more than 100 µM throughout.

The values above are taken from PubChem BioAssay (NCI).
